Where two headings read alike, the source gives them in different places. Values belong to the compound of their own block, whether it stands above or below them.
Assays:
[1] = In vivo pharmacokinetic analysis (plasma); conditions: female, Balb/C, mouse, mice, read-out: Plasma half-life t1/2 (converted)
Procedure: Age 8 to 9 weeks Balb/C female mice were used for this study. The mice were maintained in a special pathogen-free environment and in disposable cages. Animal room was set to maintain temperature and relative humidity at 23° C.±3° C. and 55%±15%, respectively. Housing room was on a 12:12 light/dark cycle. Water was supplied ad libitum to each cage via water bottles. All mice were fed rodent diet with 18% protein. All animals were weighed before commencement of the study.
Compound 1 was stored at 4° C. protected from light. Dosing solutions were used within 2 hours of preparation. Compound 1 was formulated within 2 hours prior to dosing by adding the pre-calculated volume of PEG 400 (40% of total solution volume). Formulated compound 1 was vortexed and sonicated until a clear solution was formed. To this clear formulation, saline (60% of total solution volume) was added and vortexed until a clear solution was formed. The Compound 1 solution was filtered using a sterile syringe filter (0.2 μm coming filter). All Compound 1 solutions were mixed thoroughly prior to pulling up into syringes and prior to dosing. 12 mice were dosed intravenously at 5 mg/kg. 12 mice were dosed intraperitoneally at 10 mg/kg. 12 mice were dosed orally at 10 mg/kg. Animals were sacrificed for blood and organs sampling. Under isoflurane anesthesia, blood was collected via retro-orbital route. Blood samples were then centrifuged for 5 minutes at a minimum of 2,000×g. Plasma supernatant (a minimum of 50 μL or as much as feasible to collect) was collected. Plasma was stored at −80° C.
Bioanalytical analysis of plasma levels of Compound 1 was performed by mass spectrometry. Calibration standards were prepared by spiking the test compound into blank plasma. Calibrator concentrations were 5,000, 2,000, 1,000, 200, 100, 20, 10, 2 and 1 ng/mL. Calibration standard samples were processed along with the test samples.
Twenty μL aliquots of plasma test samples were treated with 100 μL of methanol: acetonitrile (5:95 v:v) containing internal standard (12.5 ng/mL verapamil). The mixtures were vortexed on a shaker for 15 minutes and subsequently centrifuged at 4,000 rpm for 15 minutes. An aliquot of 50 μL of the supernatant was mixed with 100 μL of water with 0.1% formic acid for injection to the LC/MS/MS (liquid chromatography/tandem-mass spectrometry).
The concentration of Compound 1 was determined by a UPLC-TIS-MS-MS method (ultra performance liquid chromatography—turbo ion spray—tandem mass spectrometry). The UPLC comprised a Shimadzu LC-30AD HPLC (high performance liquid chromatography). Chromatographic separation was achieved using a Waters UPLC column (Acquity UPLC BEH C18, 50×2.1 mm, 1.7 μM). Mobile phase A was water with 0.1% formic acid; mobile phase B was acetonitrile with 0.1% formic acid. The gradient program was as follows: 20% B (0-0.2 min), 20-95% B (0.2-1.2 min), 95% B (1.2-1.8 min), 95-20% B (1.81-2.2 min). The flow rate was 0.6 mL/minute. The column was maintained at 50° C.
Mass spectrometric analysis was performed using an AB Sciex API5000 with Turbo Ion Spray interface operating in a positive ionization mode. Quantification was performed using multiple reaction monitoring (MRM) method with the transitions of (m/z) 316.104→(m/z) 219.014 for Compound 1 and (m/z) 455.346→(m/z) 165 for verapamil (internal standard). Pharmacokinetics of Compound 1 ((E)-1-(3-(8-methoxy-2,3-dihydrobenzo[b][1,4]dioxin-6-yl)acryloyl)-5,6-dihydropyridin-2(1H)-one) in the plasma of the mice dosed intravenously (IV; 5 mg/kg), intraperitoneally (IP; 10 mg/kg) and orally (PO; 10 mg/kg) (n=3 per time point) is illustrated in FIG. 1.

[2] = test system: multiple myeloma (MOLP-8) cells; experiment: In vitro cell viability assay (CellTiter-Glo, ATP levels); type: cell-based; conditions: Homo sapiens, MOLP-8, 168 h, 7-day incubation, average IC50
Procedure: (§1) The present disclosure provides a method for inhibiting cell viability, as measured by ATP levels. The method for inhibiting cell viability is drawn to contacting various cancer cells with the compounds described herein at various concentrations. The cancer cell lines were maintained in culture conditions at 37° C. in an atmosphere of 5% CO2 in air. The cells growing in an exponential growth phase were harvested and counted for plating. Compounds were incubated in two cancer cell types representing multiple myeloma (MOLP-8) and triple negative breast cancer (DU4475). Cells were plated at an optimized cell numbers per well in 96-well plates and allowed to attach to the plates overnight at approximately 80% confluency.
(§2) After addition of compounds, plates were incubated for 7-day. At the end of incubation period on day 8, media was removed and replaced with a solution of CellTiter-Glo™ reagent (Promega®) according to protocol. Luminescence was read using an EnVision® multi-label plate reader (Perkin-Elmer®), and signal intensity was calculated relative to positive and negative control wells. Cisplatin was included as the positive control. A dose-response calculation was performed in a non-linear regression fit and by using the Hill equation to calculate a concentration-response curve and 50% inhibitory concentration (IC50) values for each compound. […]

[3] = test system: triple negative breast cancer (DU4475) cells; experiment: as above; type: cell-based; conditions: Homo sapiens, DU-4475, 168 h, 7-day incubation, average IC50
Procedure: as §1, §2

[4] = test system: collagen-induced arthritis; experiment: Collagen-induced arthritis in female Lewis rats; type: in vivo; conditions: 3 mg/kg QD PO, vs vehicle control rats

half-life ([1]; plasma, IP, 10 mg/kg): 1.14 h
half-life ([1]; plasma, IV, 5 mg/kg): 1.66 h
half-life ([1]; plasma, PO, 10 mg/kg): 2.16 h
SMILES: COc1cc(/C=C/C(=O)N2CCC=CC2=O)cc2c1OCCO2 [Compound 1, (E)-1-(3-(8-methoxy-2,3-dihydrobenzo[b][1,4]dioxin-6-yl)acryloyl)-5,6-dihydropyridin-2(1H)-one]

IC50 [2]: 6.11 µM
IC50 [3]: 5.06 µM
SMILES: C/C(=C/c1ncccn1)C(=O)N1CCC=CC1=O [Compound 49]

SMILES: CCS(=O)(=O)N1CC(CC#N)(n2cc(-c3ncnc4[nH]ccc34)cn2)C1 [baricitinib]
reduction of ankle diameter measurements AUC [4]: 72%
reduction of final hind-paw weights [4]: 71%

SMILES: COc1cc(/C=C/C(=O)N2CCC=CC2=O)cc(OC)c1OC [piperlongumine, 1-[(E)-3-(3,4,5-trimethoxyphenyl)prop-2-enoyl]-2,3-dihydropyridin-6-one]
half-life ([1]; in vivo, IP, 10 mg/kg): 1.07 h
half-life ([1]; in vivo, IV, 5 mg/kg): 1.26 h
half-life ([1]; in vivo, PO, 10 mg/kg): 1.31 h

From US20200377510A1, “DERIVATIVES OF PIPERLONGUMINE AND USES THEREOF” (Auransa Inc., priority 2019, published 2020)
